# Test results reported in US9359342B2, “Protein disulfide isomerase inhibiting anticancer agents” (THE CLEVELAND CLINIC FOUNDATION, priority 2013, dated 2016).
# pIC50: −log10 of the molar value.
# Experiments:
# Tolerability in mice = type: in vivo, C57BL/KaLwRij mice
# [1] = test system: normal bone marrow (NL BM) cells; assay: Cytotoxicity in normal bone marrow; type: cell-based; conditions: three independent normal bone marrow samples; doses up to 6.75 μM
# Method: (§1) FIGS. 2(A-B) provide a graph and immunoblot showing the effect of CCF642 on cancer and protein ubiquitination, with FIG. 2(A) showing the activity of CCF642 against a panel of MM and lymphoma cells. Seventy two hours after CCF642 administration, the IC50 by trypan blue exclusion (Vicell™) is <1 μM for all MM and all but one lymphoma line. Normal bone marrow (NL BM) tolerated CCF642; myeloid cells were less sensitive, especially GDM1, with E3 ligase domain mutation of c-CBL and FIG. 2(B) showing that an increase in protein ubiquitination is accompanied by loss of myeloma survival factors in MM cells Immunoblots of MM1.S cells show rise followed by decrease of protein ubiquitination with loss of MM survival factors.
# (§2) Cell lines: Multiple myeloma cell lines MM1.S, MM1.R, NCI-H929 were obtained from ATCC. MM cell lines KMS-12-PE and KMS-12-BM were from the JCRB, JJN-3 from DSMZ, and 5TGM1-luc cells were from Dr. Yoneda at the University of Texas Health Science at San Antonio. HRMM.09 cells were generated in the inventor's lab from a patient who developed refractory myeloma after treatment with steroids, IMiD, proteasome inhibitors, DNA alkylators, and anthracyclines. MM1.S-luc and HRMM.09-luc were generated in the inventor's laboratory by transduction with Cignal™ firefly luciferase control lentivirus obtained from Qiagen™. Lymphoma cells were generated by Mitchell Smith. […]
# IRE1-α = IRE1-α oligomerization immunoblot in MM1.S cells; type: cell-based
# Method: (§3) Next, MM1.S cells were treated with B-CCF642 and purified lysates of treated and untreated cells for B-CCF642 binding proteins using streptavidin beads followed by SDS-PAGE and mass spectroscopy for protein sequencing of a band that contained biotin signal. Among 10 proteins that were only recovered from treated cells PDI was the most abundant but HSP70 family members were also recovered. To test whether HSP70 family members were inhibited by CCF642, chaperone assays were performed that tested rearrangement of partially denatured luciferase. […] However, PDI function, as assessed by the eGSSG assay which measures PDI's reducing capacity, was inhibited by CCF642 (table 1). […] To determine whether PDI activity is inhibited in vivo, the inventors performed IRE1-α immunoblots after CCF642 treatment of MM1.S cells. IRE1-α acts as a sensor for misfolded proteins in the ER and undergoes oligomerization after it binds to misfolded proteins which changes its conformation into an active state. Lavoie et al., Trends in biochemical sciences, 39(10):475-486 (2014). Within 15 min CCF642 caused IRE1-α oligomerization (FIG. 6) which was associated with increase in protein ubiquitination (FIGS. 2b and 4), a well-documented consequence of reduction in PDI activity. Lee et al., EMBO molecular medicine. 6(6):732-743 (2014).
# recombinant PDI = recombinant PDI (Homo sapiens, UniProt P07237); assay: PDI activity assay (di-eosin-di-gluthathione, eGSSG); type: biochemical; conditions: for PDI Activity at 10 μM (%): compound at 10 μM; for pIC50: recombinant PDI, di-eosin-di-gluthathione assay
# Method: PDI activity assay: The di-eosin-di-gluthathione assay was performed essentially as described (Raturi, A. and Mutus, B Free Radical Biology & Medicine 43; 2007) with the minor modification that we used gluthathione instead of DTT as reducing agent. Briefly, recombinant PDI was incubated with CC642 or analogs in potassium-based assay buffer at 37° C. before reactions were started by addition of gluthathione and di-eosin-di-gluthathione. Release of eosin was measured every 60 seconds for 30 min using excitation/emission filters of 525 nm/545 nm, respectively.
# as §3
# MM1.S = MM1.S myeloma cell viability; type: cell-based; conditions: Homo sapiens; for viability at 6.75 µM: MM1.S, compound at 6.75 μM, read-out: MM1.S Viable cells at 6.75 μM (%); for pIC50: MM1.S myeloma cells
# Text: Cell lines: Multiple myeloma cell lines MM1.S, MM1.R, NCI-H929 were obtained from ATCC. MM cell lines KMS-12-PE and KMS-12-BM were from the JCRB, JJN-3 from DSMZ, and 5TGM1-luc cells were from Dr. Yoneda at the University of Texas Health Science at San Antonio. HRMM.09 cells were generated in the inventor's lab from a patient who developed refractory myeloma after treatment with steroids, IMiD, proteasome inhibitors, DNA alkylators, and anthracyclines. MM1.S-luc and HRMM.09-luc were generated in the inventor's laboratory by transduction with Cignal™ firefly luciferase control lentivirus obtained from Qiagen™. Lymphoma cells were generated by Mitchell Smith. All MM and lymphoma cells were grown in RPMI 1640 (NaCl 103.45 mM, NaCO3 23.81 mM, Na2HPO4 5.63 mM, KCl 5.33 mM, Ca(NO3)2 4H2O 0.424 mM, MgSO4 0.407 mM, pH around 7.2), supplemented with 10% fetal bovine serum, penicillin G (50 units ml^−1), and streptomycin ([…]). HS-5 cells were grown in appropriate cell culture media. Normal bone marrow cells were obtained from discarded bags of bone marrow grafts from healthy donors and either kept in RPMI with 25% (v/v) HS-5 supernatant for up to 14 days for isolated cytotoxicity assays or frozen and thawed for the sandwich assay. All cells were cultured at 37° C., 5% CO2 in humidified air.
# lymphoma cell lines = assay: Cytotoxicity in lymphoma cell line panel (trypan blue exclusion, Vicell); type: cell-based; conditions: 6 of 7 (all but one) lymphoma lines, 72 h
# Method: as §1, §2
# MM cell lines = assay: Cytotoxicity in MM cell line panel (trypan blue exclusion, Vicell); type: cell-based; conditions: 72 h, all 8 MM cell lines tested
# Method: as §1, §2
# protein ubiquitination = assay: Protein ubiquitination time course immunoblot in MM1.S cells; type: cell-based
# Text: Protein ubiquitination and depletion of c-MYC, IRF4, and NF-κB. Initial tests were aimed at excluding proteasome inhibitors from further study and used WB for accumulation of ubiquitinated proteins after one day of therapy. […] Another proteasomally regulated protein, p27, disappeared as well.
# recombinant PDI, sequence (P07237 18-508, species assumed): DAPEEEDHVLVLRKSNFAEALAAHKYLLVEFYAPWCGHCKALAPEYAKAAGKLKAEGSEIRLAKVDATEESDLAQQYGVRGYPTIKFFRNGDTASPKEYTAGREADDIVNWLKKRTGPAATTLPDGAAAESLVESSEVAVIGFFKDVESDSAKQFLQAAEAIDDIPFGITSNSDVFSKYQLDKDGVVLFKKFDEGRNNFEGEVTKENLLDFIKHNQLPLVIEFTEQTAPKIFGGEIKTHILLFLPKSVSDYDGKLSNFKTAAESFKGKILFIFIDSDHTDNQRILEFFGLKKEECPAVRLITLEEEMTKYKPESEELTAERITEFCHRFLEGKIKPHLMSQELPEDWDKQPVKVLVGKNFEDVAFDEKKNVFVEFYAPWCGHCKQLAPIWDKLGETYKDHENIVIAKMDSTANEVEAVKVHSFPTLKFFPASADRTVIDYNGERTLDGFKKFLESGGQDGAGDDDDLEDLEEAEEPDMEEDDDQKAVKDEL
Structure (SMILES),PDI Activity at 10 μM (%) (recombinant PDI),pIC50 (recombinant PDI),viability at 6.75 µM (MM1.S) [%],pIC50 (MM1.S),other results
COc1ccc(N2C(=O)/C(=C/c3ccc([N+](=O)[O-])s3)SC2=S)cc1 [642-Parent],21.51,5.61,8.06,6.60,"tolerability in 5TGM1-luc engrafted mice (Tolerability in mice; C57BL/KaLwRij mice systemically engrafted with 5TGM1-luc): well tolerated; tolerability IV (Tolerability in mice; albumin-based formulation (10-20% BSA, saline, 10% DMSO) given IV): tolerated by mice when given IV; pIC50 [1]: < 5.17; time to IRE1-α oligomerization (IRE1-α): ≤ 15 min; pIC50 (lymphoma cell lines): > 6.00; pIC50 (MM cell lines): > 6.00; pIC50 (MM cell lines; listed as CCF642): ~6.30; time to increase in protein ubiquitination (protein ubiquitination): ≤ 30 min"
COc1ccc(N2C(=O)C(=Cc3ccc(C(F)(F)F)s3)SC2=S)cc1 [642-20],72.37,,92.9,< 5.17,
N#Cc1ccc(N2C(=O)C(=Cc3ccc([N+](=O)[O-])s3)SC2=S)cc1 [642-23],5.92,5.72,17.5,6.21,
"CC(C)C[C@H](NC(=O)[C@H](Cc1ccccc1)NC(=O)c1cnccn1)B(O)O [bortezomib, reference compound]",,,,,"maximal tolerated dose (Tolerability in mice; SC twice a week, C57BL/KaLwRij mice): 0.5 mg/kg"
C=CCc1cccc(/C=C2\SC(=S)N(c3ccc(OC)cc3)C2=O)c1O [642-25],40.37,5.51,92.8,< 5.17,
COc1ccc(N2C(=O)/C(=C/c3cccc([N+](=O)[O-])c3)SC2=S)cc1 [642-24],42.12,5.06,93.5,< 5.17,
COc1ccc(N2C(=O)C(=Cc3ccc(C(=O)O)s3)SC2=S)cc1 [642-21],71.54,,102,< 5.17,
